Test results taken from EP0726263A2, “Herbicidal (1,3,4)oxadiazoles and thiadiazoles” (American Cyanamid Company, priority 1995, dated 1996).

Legend:
Format in all cases: in vivo
[1] = tested on: Abutilon theophrasti; test: Herbicidal activity, preemergence test; conditions: pre; sprayed onto soil, 800 g of active material per hectare; evaluated 3 weeks after treatment
Method in brief: (§1)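 First, test compound in acetone containing 0.4% Triton X-155 is diluted with water. Next, it is sprayed at 800 g/ha (900 L/ha) onto freshly seeded loam (pre) or onto seedlings (post). Finally, plants are scored 0-9 visually after 3 or 2 weeks, respectively.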

[2] = tested on: Alopecurus myosuroides; test: Herbicidal activity, preemergence test; conditions: pre; sprayed onto soil, 800 g of active material per hectare; evaluated 3 weeks after treatment
Method in brief: as §1

[3] = tested on: Amaranthus retroflexus; test: Herbicidal activity, preemergence test; conditions: pre; sprayed onto soil, 800 g of active material per hectare; evaluated 3 weeks after treatment
Method in brief: as §1

[4] = tested on: Ambrosia artemisifolia; test: Herbicidal activity, preemergence test; conditions: pre; sprayed onto soil, 800 g of active material per hectare; evaluated 3 weeks after treatment
Method in brief: as §1

[5] = tested on: Chenopodium album; test: Herbicidal activity, preemergence test; conditions: pre; sprayed onto soil, 800 g of active material per hectare; evaluated 3 weeks after treatment
Method in brief: as §1

[6] = tested on: Galium aparine; test: Herbicidal activity, preemergence test; conditions: pre; sprayed onto soil, 800 g of active material per hectare; evaluated 3 weeks after treatment
Method in brief: as §1

[7] = tested on: Glycine max; test: Herbicidal activity, preemergence test; conditions: pre; sprayed onto soil, 800 g of active material per hectare; evaluated 3 weeks after treatment
Method in brief: as §1

[8] = tested on: Gossypium hirsutum; test: Herbicidal activity, preemergence test; conditions: pre; sprayed onto soil, 800 g of active material per hectare; evaluated 3 weeks after treatment
Method in brief: as §1

[9] = tested on: Hordeum vulgare; test: Herbicidal activity, preemergence test; conditions: pre; sprayed onto soil, 800 g of active material per hectare; evaluated 3 weeks after treatment
Method in brief: as §1

[10] = tested on: Ipomoea hederacea; test: Herbicidal activity, preemergence test; conditions: pre; sprayed onto soil, 800 g of active material per hectare; evaluated 3 weeks after treatment
Method in brief: as §1

[11] = tested on: Lamium purpureum; test: Herbicidal activity, preemergence test; conditions: pre; sprayed onto soil, 800 g of active material per hectare; evaluated 3 weeks after treatment
Method in brief: as §1

[12] = tested on: Matricaria inodora; test: Herbicidal activity, preemergence test; conditions: pre; sprayed onto soil, 800 g of active material per hectare; evaluated 3 weeks after treatment
Method in brief: as §1

[13] = tested on: Papaver rhoeas; test: Herbicidal activity, preemergence test; conditions: pre; sprayed onto soil, 800 g of active material per hectare; evaluated 3 weeks after treatment
Method in brief: as §1

[14] = tested on: Setaria viridis; test: Herbicidal activity, preemergence test; conditions: pre; sprayed onto soil, 800 g of active material per hectare; evaluated 3 weeks after treatment
Method in brief: as §1

[15] = tested on: Stellaria media; test: Herbicidal activity, preemergence test; conditions: pre; sprayed onto soil, 800 g of active material per hectare; evaluated 3 weeks after treatment
Method in brief: as §1

[16] = tested on: Triticum aestivum; test: Herbicidal activity, preemergence test; conditions: pre; sprayed onto soil, 800 g of active material per hectare; evaluated 3 weeks after treatment
Method in brief: as §1

[17] = tested on: Veronica persica; test: Herbicidal activity, preemergence test; conditions: pre; sprayed onto soil, 800 g of active material per hectare; evaluated 3 weeks after treatment
Method in brief: as §1

[18] = tested on: Zea mays; test: Herbicidal activity, preemergence test; conditions: pre; sprayed onto soil, 800 g of active material per hectare; evaluated 3 weeks after treatment
Method in brief: as §1

[19] = tested on: Abutilon theophrasti; test: Herbicidal activity, postemergence test; conditions: post; sprayed onto seedling plants, 800 g of active material per hectare; evaluated 2 weeks after treatment
Method in brief: as §1

[20] = tested on: Alopecurus myosuroides; test: Herbicidal activity, postemergence test; conditions: post; sprayed onto seedling plants, 800 g of active material per hectare; evaluated 2 weeks after treatment
Method in brief: as §1

[21] = tested on: Amaranthus retroflexus; test: Herbicidal activity, postemergence test; conditions: post; sprayed onto seedling plants, 800 g of active material per hectare; evaluated 2 weeks after treatment
Method in brief: as §1

[22] = tested on: Ambrosia artemisifolia; test: Herbicidal activity, postemergence test; conditions: post; sprayed onto seedling plants, 800 g of active material per hectare; evaluated 2 weeks after treatment
Method in brief: as §1

[23] = tested on: Chenopodium album; test: Herbicidal activity, postemergence test; conditions: post; sprayed onto seedling plants, 800 g of active material per hectare; evaluated 2 weeks after treatment
Method in brief: as §1

[24] = tested on: Galium aparine; test: Herbicidal activity, postemergence test; conditions: post; sprayed onto seedling plants, 800 g of active material per hectare; evaluated 2 weeks after treatment
Method in brief: as §1

[25] = tested on: Glycine max; test: Herbicidal activity, postemergence test; conditions: post; sprayed onto seedling plants, 800 g of active material per hectare; evaluated 2 weeks after treatment
Method in brief: as §1

[26] = tested on: Gossypium hirsutum; test: Herbicidal activity, postemergence test; conditions: post; sprayed onto seedling plants, 800 g of active material per hectare; evaluated 2 weeks after treatment
Method in brief: as §1

[27] = tested on: Hordeum vulgare; test: Herbicidal activity, postemergence test; conditions: post; sprayed onto seedling plants, 800 g of active material per hectare; evaluated 2 weeks after treatment
Method in brief: as §1

[28] = tested on: Ipomoea hederacea; test: Herbicidal activity, postemergence test; conditions: post; sprayed onto seedling plants, 800 g of active material per hectare; evaluated 2 weeks after treatment
Method in brief: as §1

[29] = tested on: Lamium purpureum; test: Herbicidal activity, postemergence test; conditions: post; sprayed onto seedling plants, 800 g of active material per hectare; evaluated 2 weeks after treatment
Method in brief: as §1

[30] = tested on: Matricaria inodora; test: Herbicidal activity, postemergence test; conditions: post; sprayed onto seedling plants, 800 g of active material per hectare; evaluated 2 weeks after treatment
Method in brief: as §1

[31] = tested on: Papaver rhoeas; test: Herbicidal activity, postemergence test; conditions: post; sprayed onto seedling plants, 800 g of active material per hectare; evaluated 2 weeks after treatment
Method in brief: as §1

[32] = tested on: Setaria viridis; test: Herbicidal activity, postemergence test; conditions: post; sprayed onto seedling plants, 800 g of active material per hectare; evaluated 2 weeks after treatment
Method in brief: as §1

[33] = tested on: Stellaria media; test: Herbicidal activity, postemergence test; conditions: post; sprayed onto seedling plants, 800 g of active material per hectare; evaluated 2 weeks after treatment
Method in brief: as §1

[34] = tested on: Triticum aestivum; test: Herbicidal activity, postemergence test; conditions: post; sprayed onto seedling plants, 800 g of active material per hectare; evaluated 2 weeks after treatment
Method in brief: as §1

[35] = tested on: Veronica persica; test: Herbicidal activity, postemergence test; conditions: post; sprayed onto seedling plants, 800 g of active material per hectare; evaluated 2 weeks after treatment
Method in brief: as §1

[36] = tested on: Zea mays; test: Herbicidal activity, postemergence test; conditions: post; sprayed onto seedling plants, 800 g of active material per hectare; evaluated 2 weeks after treatment
Method in brief: as §1

## C[C@H](NC(=O)c1nnc(-c2ccc(Cl)cc2Cl)o1)c1ccccc1 [Example 26]
[1]
  ABUTH control rating (0-9): 0 (no effect)
[2]
  ALOMY control rating (0-9): 0 (no effect)
[3]
  AMARE control rating (0-9): 3 (moderate effect)
[4]
  AMBEL control rating (0-9): 0 (no effect)
[5]
  CHEAL control rating (0-9): 0 (no effect)
[6]
  GALAP control rating (0-9): 0 (no effect)
[7]
  GLXMA control rating (0-9): 0 (no effect)
[8]
  GOSHI control rating (0-9): 0 (no effect)
[9]
  HORVW control rating (0-9): 0 (no effect)
[10]
  IPOHE control rating (0-9): 0 (no effect)
[11]
  LAMPU control rating (0-9): 0 (no effect)
[12]
  MATIN control rating (0-9): 0 (no effect)
[13]
  PAPRH control rating (0-9): 9 (complete kill)
[14]
  SETVI control rating (0-9): 0 (no effect)
[15]
  STEME control rating (0-9): 0 (no effect)
[16]
  TRZAW control rating (0-9): 0 (no effect)
[17]
  VERPE control rating (0-9): 7 (good herbicidal effect)
[18]
  ZEAMX control rating (0-9): 0 (no effect)
[19]
  ABUTH control rating (0-9): 1 (trace effect)
[20]
  ALOMY control rating (0-9): 0 (no effect)
[21]
  AMARE control rating (0-9): 8 (approaching complete kill)
[22]
  AMBEL control rating (0-9): 0 (no effect)
[23]
  CHEAL control rating (0-9): 5 (definite injury)
[24]
  GALAP control rating (0-9): 0 (no effect)
[25]
  GLXMA control rating (0-9): 2 (slight effect)
[26]
  GOSHI control rating (0-9): 3 (moderate effect)
[27]
  HORVW control rating (0-9): 0 (no effect)
[28]
  IPOHE control rating (0-9): 0 (no effect)
[29]
  LAMPU control rating (0-9): 7 (good herbicidal effect)
[30]
  MATIN control rating (0-9): 2 (slight effect)
[31]
  PAPRH control rating (0-9): 3 (moderate effect)
[32]
  SETVI control rating (0-9): 4 (injury)
[33]
  STEME control rating (0-9): 6 (herbicidal effect)
[34]
  TRZAW control rating (0-9): 0 (no effect)
[35]
  VERPE control rating (0-9): 3 (moderate effect)
[36]
  ZEAMX control rating (0-9): 0 (no effect)

## C[C@H](NC(=O)c1nnc(-c2ccc(Cl)c(Cl)c2)o1)c1ccccc1 [Example 27]
[1]
  ABUTH control rating (0-9): 0 (no effect)
[2]
  ALOMY control rating (0-9): 0 (no effect)
[3]
  AMARE control rating (0-9): 0 (no effect)
[4]
  AMBEL control rating (0-9): 0 (no effect)
[5]
  CHEAL control rating (0-9): 0 (no effect)
[6]
  GALAP control rating (0-9): 0 (no effect)
[7]
  GLXMA control rating (0-9): 0 (no effect)
[8]
  GOSHI control rating (0-9): 0 (no effect)
[9]
  HORVW control rating (0-9): 0 (no effect)
[10]
  IPOHE control rating (0-9): 0 (no effect)
[11]
  LAMPU control rating (0-9): 0 (no effect)
[12]
  MATIN control rating (0-9): 0 (no effect)
[13]
  PAPRH control rating (0-9): 3 (moderate effect)
[14]
  SETVI control rating (0-9): 0 (no effect)
[15]
  STEME control rating (0-9): 0 (no effect)
[16]
  TRZAW control rating (0-9): 0 (no effect)
[17]
  VERPE control rating (0-9): 3 (moderate effect)
[18]
  ZEAMX control rating (0-9): 0 (no effect)
[19]
  ABUTH control rating (0-9): 0 (no effect)
[20]
  ALOMY control rating (0-9): 0 (no effect)
[21]
  AMARE control rating (0-9): 5 (definite injury)
[22]
  AMBEL control rating (0-9): 0 (no effect)
[23]
  CHEAL control rating (0-9): 6 (herbicidal effect)
[24]
  GALAP control rating (0-9): 0 (no effect)
[25]
  GLXMA control rating (0-9): 2 (slight effect)
[26]
  GOSHI control rating (0-9): 2 (slight effect)
[27]
  HORVW control rating (0-9): 0 (no effect)
[28]
  IPOHE control rating (0-9): 0 (no effect)
[29]
  LAMPU control rating (0-9): 4 (injury)
[30]
  MATIN control rating (0-9): 0 (no effect)
[31]
  PAPRH control rating (0-9): 2 (slight effect)
[32]
  SETVI control rating (0-9): 0 (no effect)
[33]
  STEME control rating (0-9): 0 (no effect)
[34]
  TRZAW control rating (0-9): 0 (no effect)
[35]
  VERPE control rating (0-9): 0 (no effect)
[36]
  ZEAMX control rating (0-9): 0 (no effect)
